Drawing on BindingDB's records for patent US11529321 (Wigen Biomedicine Technology (Shanghai), 2022), this text covers IC50 for three compounds.

The target of this assay is Microtubule-associated proteins 1A/1B light chain 3B (Homo sapiens, UniProt Q9GZQ8). Description: Molecular Level Experiments of Targeting LC3B.
Regarding `O=C1CC(c2ccccc2)CC(=O)C1=CNCCN1CCN(C(=S)Nc2cccc(Cl)c2)CC1` (stereo not drawn) [US11529321, Compound 31], the IC50 result is “in the range around 9 µM”. Next, `C=CCNC(=S)N1CCN(CCNC=C2C(=O)CC(c3ccco3)CC2=O)CC1` (stereo not drawn) [US11529321, Compound 39]: “in the range around 9 µM”; `CCCCCC(=O)N1CCN(CCNC=C2C(=O)CC(c3ccco3)CC2=O)CC1` (stereo not drawn) [US11529321, Compound 58]: “in the range around 9 µM”.
